Data taken from patent publication US6340755B1, “5H-Pyrano[2,3-d: 6,5-d']dipyrimidine derivatives having an antibacterial, antiviral and immuno-modulating activity” (Natural Drug Sciences LLC, priority 2000, dated 2002).

Legend:
[1] = tested on: herpes simplex type I (VPG-I/Leningrad/248/88); assay: Activity on herpes simplex virus: cytopathic action of the virus on Vero cells; format: cell-based; conditions: 36 hours; for number of cells in 100 fields (unchanged cells): cell control 12000
Procedure: The antiviral activity was studied relative to the virus herpes simplex type I (VPG-I/Leningrad/248/88) by a standard method. The virus was grown on a reinoculated Vero cell culture obtained from the cell culture bank of the Institute of Cytology of the Russian Academy of Sciences.
To cells grown on medium RPMI-1640 with 10% calf serum and placed in the wells of a 96-well plate, the virus was added to give a final concentration of 10 particles/ml and the claimed compounds dissolved in DMSO were added to give a final concentrations of 100, 10, and 1 mg/l. We used 5 individual wells for every concentration tested. The plate was incubated for 60 min at 38° C. in a CO2 incubator. After incubation the virus was removed and new medium was added that contained the claimed compounds in the test concentrations.
The results were evaluated according to the existence of a cytopathic action of the virus on the cells after 36 hours of incubation at 38° C. in the CO2 incubator.
The following controls were used in the experiment:
3. Control of antiviral activity of an antiviral preparation—acylcovir.
To access the cytopathic effect of the virus, we counted the number of unchanged cells in 100 fields formed by a specialized grid on the eyepiece of the inversion microscope.

[2] = tested on: herpes simplex type I (VPG-I/Leningrad/248/88); assay: as above; format: cell-based; conditions: 50 mg/l, 36 hours
non-linebred white mice = assay: Acute toxicity (LD50) in mice; format: in vivo; conditions: mice 18-20 g; by mouth or intravenously; observation period 14 days
Procedure: Acute toxicity was determined on non-linebred white mice weighing 18-20 g. Emulsions of certain of the claimed compounds were prepared in a range of concentrations: 1500, 700, 500, 100, 20 and 5 μg/kg. Five animals were used to study each specific concentration of a compound. The preparation was administered once a day by mouth or intravenously. The observation period was 14 days On days 1, 8 and 15 the animals in every group were weighed. For a control we used animals who received the emulsion without the test compounds.
All animals, both that died in the course of the experiment and those that survived to the end of the experiment, were opened to allow macroscopic examination of internal organs.
In the course of the experiment no loss of weight was observed or any change in behavior or external appearance, nor was there any loss of life. Based on the results of the macroscopic examination of internal organs of the animals in the test and the control groups, no pathological findings were made (Table 7).

[3] = tested on: primary culture of human lymphocytes; assay: Interferon-inducing activity in primary culture of human lymphocytes (immunoenzyme IFN determination); format: cell-based; design: unit of the concentration uncertain; conditions: 24 hours of incubation
Procedure: Interferon synthesis induction by the claimed preparations was conducted on a primary culture of human lymphocytes (the cells in the human body are the main producers of interferon). To obtain a culture of the lymphocytes we used fresh blood (12 hours after collection) from healthy […] (not from the second group).
The lymphocyte concentration was determined after staining with methyl blue and the number of cells in the Goryaev chamber was calculated. […] The final concentration of the lymphocytes in the induction mixture was 3·10^6 cells/ml. The following controls were processed in parallel with the test samples:
The control and the experimental samples were incubated for 24 hours at 37° C. Following incubation the samples were centrifuged at 2000 g to settle out the cellular elements and the INF-containing supernatant was taken from the samples and analyzed for INF content. The cell residue was resuspended in the same volume of nutrient medium, stained with a vital dye—trypan blue—and the number of cells in the Goryaev chamber was calculated (as described above) to determine the cytotoxic activity of the preparations.
For the quantitative determination of INF in the control and experimental samples we used the ProCon IF2 Plus immunoenzyme test system sold by TOO Proteinovyi Kontur. To determine the quantity of interferon s in the sample we used a solid-phase immunoenzyme method utilizing horseradish peroxidase as the enzyme indicator. The activity of the bound peroxidase was measured using an automated photometer at a wavelength of 450 nm for the microplanchets with a microprocessor. […] On the basis of the results obtained we plotted a calibration curve that allowed us to obtain data expressed in International Units (IU) from the microprocessor of the automated photometer. The results of the analysis are expressed in IU of activity of INF per ml in the given induction system containing 3·10^6 lymphocytes/ml. Every experimental and control point was studied in 4 parallel runs.
The results obtained were analyzed statistically using the t-test and the confidence interval at p=0.05 was calculated. Analysis of the convergence of the results of the parallel tests were performed.

C. trachomatis D323 = assay: Activity on Chlamydia trachomatis in McCoy and L929 cell cultures; format: cell-based; conditions: 100 mg/l, 48 hours
Procedure: The antimicrobial activity of the claimed compounds was studied on C. trachomatis […]-a standard strain from the collection of the Department of Microbiology of the Pavlov St.-Petersburg State University. This strain was isolated from a patient with […] urethritis. […] In the work reported here we used McCoy and L929 cell cultures obtained from the Institute of Cytology of the Russian Academy of Sciences. The cells were grown in flasks of neutral glass in RPMI-1640 medium with an addition of 10% fetal calf serum. The experiment was placed in glass (toxicity-free) flat-bottomed flasks and covered with glass. The cells were introduced into the medium in a final concentration of 1·10 cells/ml. […] The sample was centrifuged at 2400 g for 60 min at room temperature and incubated at 37° C. for 2 hours. […] A parallel series of samples was run using medium without the cycloheximide in order to avoid its influence on the test substances. The samples were incubated for 48 hours in a CO2 incubator. […] The results were evaluated from the detection of chlamydia cytoplasmatic inclusion by an immunoenzyme method (MicroTrac Chlamydia trachomatis Direct Specimen Test) and from chlamydia antigens using CylaMonoScreen (Russian-British Joint Venture, 66 Regent's Park Road, London NW 1 7SX).

In the case of Oc1nc(S)nc2c1C(c1ccc(Cl)cc1)c1c(O)nc(S)nc1O2 [VIII], the “percent protection of the cells against the virus compared to the cell culture control” value (shortened to “percent protection … to the cell culture control”) ([1]; 10 mg/l) is reported as 20%, the “number of cells in 100 fields (unchanged cells)” value (from here on “number … (unchanged cells)”) ([1]; 10 mg/l) is reported as 2400 and the “percent protection … to the cell culture control” value ([1]; 100 mg/l) is reported as 90%. The “number … (unchanged cells)” value ([1]; 100 mg/l) was 10800, the “percent protection … to the cell culture control” value [2] was 50% and the “number … (unchanged cells)” value ([2]; cell control 12000) was 6000. The LD50 (non-linebred white mice) was 1800 mg/kg, the “Interferon-inducing activity of the drug; content of INF in induction mixture” value (shortened to “Interferon-inducing activity of the drug”) ([3]; 1 (unit uncertain)) was 1.5 ± 1.0 IU/3 · 10^4 lymp/ml and the “Interferon-inducing activity of the drug” value ([3]; 10 (unit uncertain)) was 23.2 ± 1.5 IU/3 · 10^4 lymp/ml. The “Interferon-inducing activity of the drug” value ([3]; 100 (unit uncertain)) was 70.5 ± 2.5 IU/3 · 10^4 lymp/ml, the “percent protection of the cells against infection” value (C. trachomatis D323) was 60% and the “number … (unchanged cells)” value (C. trachomatis D323; cell control 8000, infected cell control 6400) was 7360.
